Measurements: patent US20170216360A1, “METHODS AND COMPOSITIONS FOR IMPROVING HOMING OF CELLS INCLUDING MESENCHYMAL STEM CELLS” (SANOFI, priority 2014, published 2017)
“Also recorded” adds a separate entry of the source. Counter-ions that a name gives are not always drawn. Like-named read-outs stand apart in the source and are kept apart here.

What was measured:
[1] = test system: CD11a surface expression on huMSCs; experiment: Medium throughput screen: CD11a surface expression on MSCs, PE-CY5 anti-CD11a antibody, laser-scanning fluorescence microplate cytometer; format: cell-based, human; design: key to Cell surface ligand CD11a (induction of expression): NA = negative activity result; A = positive activity result; conditions: pretreatment of huMSCs; for EC50: read-out: Cell Surface Marker ED 50 (M) Molar Concentration of Compound for CD11a Expression
Protocol: An in vitro screen was performed for compounds that induce surface expression on huMSCs of the marker CD11a (LFA-1). This screen may be considered a medium throughput screen. Certain compounds that induce the increase of this surface marker were then selected for testing in an in vitro firm adhesion assay and/or in vivo systemic administration in an animal model of inflammation. The surface expression screen involved fluorophore-conjugated antibodies to the respective markers. Following pretreatment with the test compounds, samples of cells were incubated with the labeled antibodies for detection of surface marker expression and change relative to a reference level of untreated cells or negative control samples or values. Cells were pretreated with a concentration (3 μM) of each small molecule compound for 24 hours, followed by incubation with a fluorophore-conjugated anti-marker antibody to detect expression on MSC surface. Surface expression levels of marker ligands were then evaluated by laser-scanning fluorescence microplate cytometer. […] Cell viability in response to compounds was also tested to assess whether molecules have toxicity after 24 hours of pretreatment. Testing was performed on two different huMSC sources representing cells from different donors.
Further details of the screening approach are provided as follows. A unique single batch of bone marrow-derived MSC cells was prepared for the entire screening campaign by cell amplification using CellStack flasks and freezing in separate vials at passage P5. […] For each run, vials were thawed and cells directly seeded on 384-well plates at 3,000 cells per well in MSCGM medium. Following an overnight incubation, cells were treated with the indicated concentrations of compounds for 24 hours. Cells were washed in PBS, 3% BSA and incubated for one hour with PE-CY5-conjugated anti-CD11a monoclonal antibody (clone HI111). Expression of CD11a at the cell surface was detected using the Acumen Explorer, a laser-scanning fluorescence microplate cytometer after two PBS washings. HL-60 cells seeded at 10,000 cells per well and treated with 100 nM phorbol 12-myristate 13-acetate (PMA) for 24 h to induce cell adhesion were used as a positive control in each 384-well plate. Positive compounds were counter-screened for their auto-fluorescence by measuring the signal in the absence of antibody.
A single batch of bone marrow-derived MSC was prepared for the entire screening campaign by cell amplification using CellStack flasks and freezing in separate vials at passage P5. […] For each run, vials were thawed and cells directly seeded on 384-well plates at 3,000 cells per well in MSCGM medium. Following an overnight incubation, cells were pretreated with a low (0.1 μM) and high (3 μM) concentration of the compounds for 24 h. 9,000 cpds were tested in 112 assay plates, each 384-well plate contained 320 cpds (from column 5 to 24), one column for Max (Column2, HL60 cells) and one column for Min (Column4, MSC cells). Cells were washed in PBS, 3% BSA and incubated for one hour with PE-CY5-conjugated anti-CD11a monoclonal Ab (BD Biosciences). Expression of CD11a at the cell surface was detected after two PBS washes using the Acumen Explorer equipment, a laser-scanning fluorescence microplate cytometer. HL-60 cells (seeded at 10,000 cells per well and treated with 100 nM phorbol 12-myristate 13-acetate (PMA) for 24 h to induce cell adhesion) were used as a positive control in each 384-well plate. Positive compounds were counter-screened for their auto-fluorescence by measuring the signal in the absence of Ab. Shown in FIG. 4 is the global screening data. Using the Max, Min columns, we have calculated Max/Min ratio generated with CD11a Ab for each assay plate (signal/background ration in green columns was calculated for each of the 112 assay plates). […]

[2] = test system: MSC firm adhesion to ICAM-1-coated surface; experiment: ICAM-1 firm adhesion assay under shear flow, with antibody blocking; format: cell-based, human; conditions: 3 μM for 24 h
Protocol: (§1) Cell adhesion experiments were performed using Bioflux1000 (FluxionBio), allowing accurate control over shear flow. A special 48-well plate was used, in which a microfluidic channel (350 μm×70 μm) connects each pair of adjacent wells (termed inlet and outlet wells). The plate was placed under vacuum and the channels were coated from the inlet with recombinant human E-selectin (5 μg/mL) or ICAM-1 (5 μg/mL) and incubated at 37° C. for 1 h. Prior to introducing the cells into the channel, a wash with PBS−/− from the outlet well was performed for 5 min. Compound-pretreated MSCs were introduced into the channel, followed by attachment period of 2 minutes (no flow applied during the attachment period). Attached cells were then subjected to increasing shear flow, ranging from 0.25 dynes/cm^2 for up to 10 dynes/cm^2. Images were acquired using the Montage software and cell adhesion to the coated channels following subjection to shear flow was examined. See also disclosure elsewhere herein.
Pre-confluent MSCs were incubated for 24 hours with the indicated small molecules (3 μM). MSCs were than detached, washed and incubated for 30 minutes with an antibody reagent. The following antibodies are used: anti-human CD11a (clone: HI111), anti-human CD90 (clone: MAB2067), mouse anti-human CD11a (clone: TS1/22), and mouse IgG1 isotype control. Cells were then introduced into the channel and given 2 minutes to adhere before being subjected to increasing shear flow for a firm adhesion assay on a microfluidic channel coated with E-selectin or ICAM-1.

[3] = test system: human mesenchymal stem cells; experiment: In vitro functional firm adhesion assay of cells (Table 3, coating not stated); format: cell-based; design: key to Result, in vitro Firm Adhesion: NA = negative activity result; A = positive activity result; conditions: for Firm adhesion, Percent increase: relative to untreated and/or negative control MSCs; for Result, in vitro Firm Adhesion: pretreated huMSCs
Protocol: as §1
1. Obtain preferred channel coating (protein/cell monolayer). 2. Prepare cell suspension (same concentrations detailed above for different cell types). 3. Add 50 μl of cell suspension to outlet well. 4. Introduce cells into channel by applying shear force of 2 dynes/cm^2 (cells should be observed within 10-15 sec flowing from outlet to inlet). 5. Once cells are observed in the channel, stop the flow and allow the introduced cells to sit for different time periods ranging from 30 seconds to 5 minutes. 6. Following this settling period, apply shear force starting from 0.5 dynes/cm^2 up to 10 dynes/cm^2 and acquire videos using stream acquisition. 7. Cell quantification is then performed using the Montage software—percentage of cells adhered, rolled or washed away after applying shear flow should be quantified.

[4] = test system: CD11a surface expression on MSCs; experiment: Flow cytometry of CD11a surface expression on MSCs (FITC-CD11a Ab); format: cell-based, human; conditions: 3 μM for 24 h
Protocol: MSCs were pretreated with DMSO vehicle control (DMSO-MSC, 0.1%) or ruboxistaurin (Rub-MSC, 3 μM) for 24 h and CD11a expression levels were assessed via flow cytometry (cells were stained with either FITC-CD11a Ab or isotype control, representative data from n=3 independent experiments).

[5] = test system: LPS-induced inflamed mouse ear; experiment: In vivo MSC homing to LPS-induced inflamed ear after systemic infusion, intravital microscopy; design: key to In vivo functional assay (homing): NA = negative activity result; A = positive activity result; conditions: for Increase of MSC homing to inflamed ear (%): relative to untreated cells
Protocol: C57BL/6 mice (Charles River Laboratories, Wilmington, Mass.) were anesthetized with ketamine/xylazine and their ears shaved 24 h prior to cell infusion. To induce an inflammatory response, 30 μg of E. coli lipopolysaccharide (LPS, Sigma, St. Louis, Mo.) in 50 μL saline was injected into the pinna of the left ear, with 50 μL 0.9% saline injected into the right ear as a control. For in vivo dye sensitivity validation, 1×10e6 cells of each stain were suspended in 150 μL PBS (pH 7.4) and injected by retro-orbital vein infusion.
To evaluate the minimum number of cells needed for a reproducible response, each mouse (n=4) received a range of cell doses (10,000, 50,000, 100,000, or 500,000) each of cells stained with Dil or DiD with a dye switch (i.e., dyes used for experimental and control cells were alternated to prevent bias based on the dyes that were used). To evaluate the impact of small molecule hit pre-treatment on MSC homing to the inflamed ear, MSCs were incubated with 3 μM of the small molecule hit or 0.1% DMSO as a control for 24 h before staining and in vivo administration. To highlight the vasculature, 50 μL of 10 mg/mL FITC-dextran ([…]; Sigma, St. Louis, Mo.) was injected retro-orbitally prior to imaging.
In vitro staining and in vivo homing of stained MSCs to the skin was imaged noninvasively in real time using a custom-built video-rate laser-scanning confocal microscope designed specifically for live animal imaging. For in vivo imaging, the mouse ear was positioned under a coverslip with methylcellulose gel and images acquired at 30 frames per second at a depth up to 200 μm using a 60×1.0NA water immersion objective lens (Olympus, Center Valley, Pa.). DiO labeled MSCs were excited with a 491 nm continuous wave (CW) laser (Cobalt, Stockholm, Sweden), and detected through a 520±20 nm bandpass filter (Semrock, Inc., Rochester, N.Y.). Dil labeled MSCs were excited with a 561 nm CW laser (Coherent, Inc., Santa Clara, Calif.) and detected through a 593 nm±40 nm filter (Omega Optical, Brattleboro, Vt.). DiD labeled MSCs were excited with a 635 nm CW laser (Coherent, Inc., Santa Clara, Calif.) and detected through a 695 nm±27.5 nm band pass filter (Omega Optical, Brattleboro, Vt.). DiR labeled MSCs were excited using a femtosecond Ti:Sapphire Maitai source for single photon excitation at 750 nm (Spectra Physics, Santa Clara, Calif.) and collected through a 785 nm±31 nm band pass filter (Omega Optical, Brattleboro, Vt.).
For quantification, the average number of cells in 20 representative imaging locations across the inflamed region was counted in each mouse. Cells were defined as having a diameter from 10-30 μm to eliminate debris and clumps from analysis, and a primary channel intensity greater than 2 to eliminate autofluorescent events. The average relative detection sensitivity (ratio of Dil/DiD counts) determined in the overall dye efficiency experiments were used to scale the counts for DiD stained cells. […] For multiple comparisons, Tukey's HSD test was used. Error bars in graphs represent standard error, and statistical significance is denoted by * p<0.05.

## CN1CCCC1CCn1cc(C2=C(c3c[nH]c4ccccc34)C(=O)NC2=O)c2ccccc21 (stereo not shown) [Compound 1928, 3-(1H-indol-3-yl)-4-{1-[2-(1-methyl-pyrrolidin-2-yl)-ethyl]-1H-indol-3-yl}-pyrrole-2,5-dione]
[1]
  Cell surface ligand CD11a (induction of expression): A

## Cn1cc(C2=C(c3cn(C)c4ccccc34)C(=O)NC2=O)c2ccccc21 [Compound 1912, 3,4-bis-(1-methyl-1H-indol-3-yl)-pyrrole-2,5-dione]
[1]
  Cell surface ligand CD11a (induction of expression): A

## CN(C)C[C@@H]1CCn2cc(c3ccccc32)C2=C(C(=O)NC2=O)c2cn(c3ccccc23)CCO1 [Ruboxistaurin, ruboxistaurin, reference compound]
[1]; Homo sapiens
  EC50: > 3e-05 M
[2]
  MSC firm adhesion to ICAM-1-coated substrates, result in words: did not improve
[3]
  Firm adhesion, Percent increase: 0% (negative response)
[4]
  CD11a surface expression on MSCs: did not increase; also recorded: does not upregulate

## O=C1C(c2c[nH]c3ccccc23)=C(c2c[nH]c3ccccc23)C(=O)N1Cc1ccccc1 [Compound 1921, 1-benzyl-3,4-bis-(1H-indol-3-yl)-pyrrole-2,5-dione]
[1]; Homo sapiens
  EC50: 1.75e-05 M
[1]
  Cell surface ligand CD11a (induction of expression): A

## CN1C(=O)C(c2c[nH]c3ccccc23)=C(c2cn(C)c3ccccc23)C1=O [Compound 1905, 3-(1H-indol-3-yl)-1-methyl-4-(1-methyl-1H-indol-3-yl)-pyrrole-2,5-dione]
[1]; Homo sapiens
  EC50: 1.68e-05 M

## Cn1cc(C2=C(c3cn(C4CCN(Cc5ccccn5)CC4)c4ccccc34)C(=O)NC2=O)c2ccccc21 [Compound 1906, 3-(1-methyl-1H-indol-3-yl)-4-[1-(1-pyridin-2-ylmethyl-piperidin-4-yl)-1H-indol-3-yl]-pyrrole-2,5-dione, reference compound]
[1]; Homo sapiens
  EC50: 3.19e-06 M

## CN(C)CC1CCn2c(c(C3=C(c4cn(C)c5ccccc45)C(=O)NC3=O)c3ccccc32)C1 (stereo not shown) [Compound 1933, 3-(8-dimethylaminomethyl-6,7,8,9-tetrahydro-pyrido[1,2-a]indol-10-yl)-4-(1-methyl-1H-indol-3-yl)-pyrrole-2,5-dione hydrochloride]
[1]; Homo sapiens
  EC50: 2.49e-05 M
[1]
  Cell surface ligand CD11a (induction of expression): A
[3]
  Result, in vitro Firm Adhesion: A
  Firm adhesion, Percent increase: 75%
[5]
  Increase of MSC homing to inflamed ear (%): <10%

## CN(C)CCCn1cc(C2=C(c3c[nH]c4ccccc34)C(=O)NC2=O)c2ccccc21 [Compound 1934, 3-[1-(3-dimethylamino-propyl)-1H-indol-3-yl]-4-(1H-indol-3-yl)-pyrrole-2,5-dione]
[1]
  Cell surface ligand CD11a (induction of expression): A

## Cn1cc(C2=C(c3c4n(c5ccccc35)CCC(CN)C4)C(=O)NC2=O)c2ccccc21 (stereo not shown) [Compound 1919, 3-(8-aminomethyl-6,7,8,9-tetrahydro-pyrido[1,2-a]indol-10-yl)-4-(1-methyl-1H-indol-3-yl)-pyrrole-2,5-dione]
[1]
  Cell surface ligand CD11a (induction of expression): A
  EC50: 2.75e-06 M
[3]
  Result, in vitro Firm Adhesion: A
  Firm adhesion, Percent increase: 81%
[5]
  Increase of MSC homing to inflamed ear (%): 45%
[5]; systemic administration of pretreated huMSCs
  In vivo functional assay (homing): A
